Reference: PubChem BioAssay AID602160 (Broad Institute, 2011)
Results filed as inconclusive are left out.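 Rule for the calls: active = signal-lowering compounds whose fitted AC50 is at most twice the top tested dose in every run; inconclusive = mixed runs, weak flat curves, or poor fits; inactive = the rest.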

These molecules were tested against Plasmodium falciparum Hsp90 (expressed in yeast GR reporter strain) (assay: decrease of GR reporter signal in PfHsp90 yeast, dose response, S. cerevisiae, beta-gal luminescence, dry powder samples (AID 602160)).

AC50, active:
O=C(CSCC(=O)N1CCCCC1)Nc1nc(-c2ccc(Cl)s2)cs1 19.6 µM
Cc1ccc(OCc2n[nH]c(=S)n2C2CCCCC2)cc1 20.2 µM
O=S(=O)(/C=C/c1ccccc1)NC1CCCCCCC1 15.1 µM
O=S(=O)(NC1CCCCCC1)c1ccc(Br)s1 10.7 µM
